In one experiment the test system is C57 mice. The experiment is described as follows: hot plate pain model in mice. It counts as in vivo. The following applies: 10 mg/kg intraperitoneal, hot plate 55° C. The method, then:
SPF-grade C57 male mice were placed at hot plate with constant 55±0.1° C. […] If the pain reaction of mice was observed, the mice were taken out immediately to prevent mice from scalding. […] Appropriate amount of test compounds were added into required volume of physiological saline and fully suspended, and the concentration of the drug compound was prepared as 1 mg/ml. The standard volume of administration to mice was 10 ml/kg (or 0.1 ml/10 g). The administration mode was intraperitoneal administration. […] The administration volume was 10 ml/kg. […] Hot plate observation indicator is the time latency of mice on the hot plate at 55±0.1° C. Measurement and recording were conducted at 3 h before administration and 15 min, 30 min, and 60 min after administration. Maximum possible effect (MPE) % was used to evaluate analgesic effect of each compound, i.e., MPE %=[(Post drug latency-baseline latency)/(30-baseline latency)]×100. MPE % at different time points was recorded. The higher the value of MPE % was, the stronger the analgesic effect of the compound was.

A further experiment has as its target T1, TRPM8 (Homo sapiens, UniProt Q7Z2W7).
T1 construct: expressed in transfected cells
The experiment is described as follows: Manual patch clamp detection on TRPM8 channel. It counts as cell-based. The following applies: 20.00 μM, positive compound. The method, then: TRPM8 cells were cultured in a cell culture dish with a diameter of 35 mm, placed in an incubator in 5% CO2 at 37° C., and passaged at a ratio of 1:5 every 48 hours. The formula of medium was 90% DMEM (Invitrogen), 10% fetal bovine serum (Gibco), 2 mM L-glutamine, 50 μg/mL Hygromycin B (Invitrogen) and 5 μg/mL Blasticidine HCl (Invitrogen). Before electrophysiological patch clamp experiment, the cell culture medium was replaced with medium containing 1 μg/mL doxycycline for at least 16 hours to induce TRPM8 expression.
On the day of the experiment, the cell culture medium was aspirated, the cell were rinsed once with extracellular fluid, and then 0.25% Trypsin-EDTA (Invitrogen) solution was added, and digested at room temperature for 1-2 minutes. The digestion solution was aspirated, the cell were resuspended with extracellular fluid, and transferred to the experimental dish for electrophysiological recording for further experiment.
Preparation of menthol: 100.00 mM of DMSO stock solution of menthol was added to the extracellular solution, diluting 1000-fold to 100.00 μM of menthol solution.
Preparation of AMTB: 5 μL of DMSO stock solution (20.00 mM) of AMTB was added to 4995 μL of menthol solution (100.00 uM), diluting 1000-fold to obtain the final concentration of 20.00 μM AMTB to be tested.
Preparation of IC-1: 20.00 mM or 10.00 mM of stock solution of IC-1 was taken and added to the agonist solution of the corresponding channel, diluting 1000 or 2000-fold to the final concentration of 10.00 μM of […] solution to be tested.
(§1) HEK293 cells stably expressing TRP channels, the corresponding agonist-induced channel current was recorded by whole-cell patch clamp technique at room temperature. […] Clamp voltages and data recording were controlled and recorded by a computer using pClamp 11 software with the sampling frequency of 10 kHz and the filtering frequency of 2 kHz. […] After the current was evoked for more than 40 s and no attenuation was determined, the dosing process started. […]
Background: The patch-clamp technique gives a direct electrical read-out from membranes.

For the next experiment, the system named is SD rats. Briefly: SNL model in rats, mechanical hyperalgesia test. It counts as in vivo. The following applies: 100 mg/kg by gavage, 1 hour after administration. How it is done: Male SPF grade SD rats, weighed 150-180 g, were selected. Aseptic operation during surgery was performed. The animals were anesthetized with sodium pentobarbital (50 mg/kg, intraperitoneal injection). The surgical area of animal waist was shaved and the skin was disinfected three times with iodophor and 70% ethanol. After the skin was dried, the operation was started. Surgical knife was used to make a longitudinal incision at the back of the sacrum of the animal waist to expose the left paraspinal muscles, and distractor was used to separate muscle tissue to expose the spine. The left spinal nerves L5 and L6 were separated and ligated with a 6-0 silk thread, and the wound was sutured. […]
The animals were weighed to calculate the dosage. […] During the test, rapid paw withdrawal of animal was recorded as pain response. When the test fiber was removed from animal skin, the paw withdrawal of animal was also recorded as pain response. If animal moved or walked, the pain response was not recorded and the test was repeated. […]
Mechanical hyperalgesia was expressed as paw withdrawal threshold (PWT) in rat behavioral test, which was calculated with the following formula: 50% response threshold (g)=(10^(Xf+k))/10,000; • Xf=the final test fiber value used in the test; • k=table value; • =mean difference

The target of a further experiment is T2, TRPV4 (Homo sapiens, UniProt Q9HBA0).
T2 construct: expressed in transfected cells
T2 sequence (Q9HBA0 whole entry, species assumed): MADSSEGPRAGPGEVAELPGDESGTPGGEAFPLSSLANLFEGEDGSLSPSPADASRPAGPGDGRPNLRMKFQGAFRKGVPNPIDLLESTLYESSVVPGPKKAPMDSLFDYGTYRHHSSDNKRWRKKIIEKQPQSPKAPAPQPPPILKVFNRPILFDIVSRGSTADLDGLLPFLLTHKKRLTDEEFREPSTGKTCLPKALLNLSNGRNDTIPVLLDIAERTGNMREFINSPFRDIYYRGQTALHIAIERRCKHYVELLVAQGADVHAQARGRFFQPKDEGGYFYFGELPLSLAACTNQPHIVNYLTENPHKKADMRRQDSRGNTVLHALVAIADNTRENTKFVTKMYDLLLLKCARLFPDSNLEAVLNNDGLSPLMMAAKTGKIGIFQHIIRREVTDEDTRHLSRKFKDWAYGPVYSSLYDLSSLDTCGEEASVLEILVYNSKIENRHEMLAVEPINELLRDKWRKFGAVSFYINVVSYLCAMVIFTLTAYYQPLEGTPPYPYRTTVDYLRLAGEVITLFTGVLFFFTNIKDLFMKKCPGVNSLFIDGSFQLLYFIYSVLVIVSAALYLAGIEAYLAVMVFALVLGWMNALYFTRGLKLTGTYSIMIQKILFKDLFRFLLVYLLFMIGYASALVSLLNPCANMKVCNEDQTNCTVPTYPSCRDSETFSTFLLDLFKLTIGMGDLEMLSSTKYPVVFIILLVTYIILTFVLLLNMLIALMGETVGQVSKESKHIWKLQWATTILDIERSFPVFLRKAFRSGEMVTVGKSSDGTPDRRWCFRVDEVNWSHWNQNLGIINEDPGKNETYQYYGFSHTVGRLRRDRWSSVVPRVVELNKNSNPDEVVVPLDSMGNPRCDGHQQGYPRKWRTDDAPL
The experiment is described as follows: Manual patch clamp detection on TRPV4 channel. It counts as cell-based. Conditions: 40.00 μM, positive compound. How it is done: TRPV4 cells were cultured in a cell culture dish with a diameter of 35 mm, placed in an incubator in 5% CO2 at 37° C., and passaged at a ratio of 1:5 every 48 hours. The formula of medium was 90% DMEM (Invitrogen), 10% fetal bovine serum (Gibco), 2 mM L-glutamine, 50 μg/mL Hygromycin B (Invitrogen) and 5 μg/mL Blasticidine HCl (Invitrogen). Before electrophysiological patch clamp experiment, the cell culture medium was replaced with medium containing 1 μg/mL doxycycline for at least 16 hours to induce the expression of TRPV4.
(§2) On the day of the experiment, the cell culture medium was aspirated, the cell were rinsed once with extracellular fluid, and then 0.25% Trypsin-EDTA (Invitrogen) solution was added, and digested at room temperature for 1-2 minutes. The digestion solution was aspirated, the cell were resuspended with extracellular fluid, and transferred to the experimental dish for electrophysiological recording for further experiment. […]
as §1

For another experiment, the target named is T3, TRPA1 (Mus musculus, UniProt Q8BLA8).
T3 construct: expressed in transfected cells
T3 sequence (Q8BLA8 whole entry): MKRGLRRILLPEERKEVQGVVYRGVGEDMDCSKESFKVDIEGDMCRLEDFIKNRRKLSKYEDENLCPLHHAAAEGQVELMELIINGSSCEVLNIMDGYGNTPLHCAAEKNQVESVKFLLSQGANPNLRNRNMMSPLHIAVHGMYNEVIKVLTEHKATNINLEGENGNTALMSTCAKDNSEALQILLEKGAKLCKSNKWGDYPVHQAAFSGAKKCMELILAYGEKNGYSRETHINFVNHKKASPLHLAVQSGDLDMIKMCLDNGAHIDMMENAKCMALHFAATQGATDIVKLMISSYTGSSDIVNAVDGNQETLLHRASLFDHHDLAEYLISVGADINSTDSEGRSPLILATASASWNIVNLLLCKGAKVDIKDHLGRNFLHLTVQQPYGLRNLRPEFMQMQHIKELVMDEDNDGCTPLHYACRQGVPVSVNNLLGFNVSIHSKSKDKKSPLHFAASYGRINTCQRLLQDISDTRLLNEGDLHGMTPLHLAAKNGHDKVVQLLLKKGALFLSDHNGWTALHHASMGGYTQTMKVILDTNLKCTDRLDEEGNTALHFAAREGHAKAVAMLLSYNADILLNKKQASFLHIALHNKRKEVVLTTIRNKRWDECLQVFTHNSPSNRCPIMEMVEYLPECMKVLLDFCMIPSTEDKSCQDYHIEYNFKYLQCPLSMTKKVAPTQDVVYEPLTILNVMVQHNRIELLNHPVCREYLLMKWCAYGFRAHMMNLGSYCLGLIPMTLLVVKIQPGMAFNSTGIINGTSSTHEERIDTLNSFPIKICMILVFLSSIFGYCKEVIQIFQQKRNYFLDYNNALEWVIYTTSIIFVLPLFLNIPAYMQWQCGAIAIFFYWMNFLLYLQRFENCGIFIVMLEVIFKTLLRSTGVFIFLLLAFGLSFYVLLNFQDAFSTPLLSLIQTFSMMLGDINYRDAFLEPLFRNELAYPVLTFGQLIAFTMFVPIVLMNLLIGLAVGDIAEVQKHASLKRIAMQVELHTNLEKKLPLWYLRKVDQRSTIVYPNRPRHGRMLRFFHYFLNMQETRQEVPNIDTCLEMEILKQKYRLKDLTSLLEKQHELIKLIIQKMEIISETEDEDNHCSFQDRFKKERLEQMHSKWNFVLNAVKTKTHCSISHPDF
Briefly: IonWorks Barracuda (IWB) automated patch clamp detection of TRPA1 inhibitory activity. It counts as cell-based. Conditions: HEK293 cells stably expressing TRPA1, AITC-induced current. How it is done: IonWorks Barracuda (IWB) automated patch clamp detection was used as test method: HEK293 cells stably expressing TRPA1 were placed in the T175 culture flask with DMEM medium containing 15 μg/mL Blasticidin S HCl, 200 μg/mL Hygromycin B and 10% FBS, and cultured in an incubator in 5% CO2 at 37° C. When the cell density reached about 80%, the culture medium was removed, the residue was rinsed once with phosphate buffered saline (PBS) without calcium and magnesium. 3 mL of Trypsin was added to digest for 2 min, 7 mL of culture medium was added to terminate the digestion. The cells were collected to 15 mL centrifuge tube and centrifuged at 800 rpm for 3 min. After the supernatant was removed, the cells were added to appropriate volume of extracellular fluid for re-suspending, and the cell density was controlled at 2-3×10^6/mL for IWB experiment. The formulation of extracellular fluid (in mM) was 140 NaCl, 5 KCl, 1 MgCl2, 10 HEPES, 0.5 EGTA, 10 Glucose (pH 7.4); the formulation of intracellular fluid (in mM) was 140 CsCl, 10 HEPES, 5 EGTA, 0.1 CaCl2), 1 MgCl2 (pH 7.2). 28 mg/mL of amphotericin B was freshly prepared with DMSO on the day of experiment, and then final concentration of 0.1 mg/mL of that was prepared with intracellular fluid.
Population patch clamp (PPC) plate was used in IWB experiment. The entire detection process was automatically carried out by the instrument. […]
The record of data and the export of current amplitude measurement were carried out by IWB software (version 2.5.3, Molecular Devices Corporation. Union City, CA). No statistics was recorded for wells with sealing impedance lower than 20 MΩ. […] TRPA1 current amplitude was measured at ±100 mV. […] The dose-effect curve of compounds and IC50 were fitted and calculated by GraphPad Prism 5.02 (GraphPad Software, San Diego, CA).

The next experiment deals with T4, TRPV1 (Homo sapiens, UniProt Q8NER1).
T4 construct: expressed in transfected cells
T4 sequence (Q8NER1 whole entry, species assumed): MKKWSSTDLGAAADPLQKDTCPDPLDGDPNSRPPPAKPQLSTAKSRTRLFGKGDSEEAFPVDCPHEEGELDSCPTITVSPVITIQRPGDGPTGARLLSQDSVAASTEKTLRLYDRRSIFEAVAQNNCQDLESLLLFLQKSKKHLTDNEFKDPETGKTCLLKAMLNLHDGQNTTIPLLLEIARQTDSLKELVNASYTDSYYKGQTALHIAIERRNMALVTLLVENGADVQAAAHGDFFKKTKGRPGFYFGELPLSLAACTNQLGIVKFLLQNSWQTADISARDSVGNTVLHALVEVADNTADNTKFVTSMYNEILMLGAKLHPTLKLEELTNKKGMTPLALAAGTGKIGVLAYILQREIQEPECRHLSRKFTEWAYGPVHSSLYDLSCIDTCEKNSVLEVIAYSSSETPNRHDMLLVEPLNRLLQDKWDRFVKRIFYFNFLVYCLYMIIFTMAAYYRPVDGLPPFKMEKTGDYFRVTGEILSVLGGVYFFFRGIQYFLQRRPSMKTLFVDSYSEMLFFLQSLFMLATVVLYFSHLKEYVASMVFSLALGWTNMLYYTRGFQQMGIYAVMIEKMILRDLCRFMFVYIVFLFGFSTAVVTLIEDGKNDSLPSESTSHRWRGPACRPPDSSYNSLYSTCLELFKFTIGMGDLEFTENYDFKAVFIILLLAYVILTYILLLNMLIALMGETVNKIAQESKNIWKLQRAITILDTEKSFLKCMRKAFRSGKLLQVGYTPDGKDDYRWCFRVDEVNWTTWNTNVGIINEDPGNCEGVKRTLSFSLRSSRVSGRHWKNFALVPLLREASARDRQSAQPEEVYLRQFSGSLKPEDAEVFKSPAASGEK
Briefly: Manual patch clamp detection on TRPV1 channel. It counts as cell-based. The following applies: HEK293, Capsaicin-induced current. The method, then:
TRPV1 cells were cultured in a cell culture dish with a diameter of 35 mm, placed in a 37° C., 5% CO2 incubator, and passaged at a ratio of 1:5 every 48 hours. Medium formula: 90% DMEM (Invitrogen), 10% Fetal bovine serum (Gibco). 2 mM L-glutamine, 50 μg/mL Hygromycin B (Invitrogen) and 5 μg/mL Blasticidine HCl (Invitrogen). Before electrophysiological patch clamp experiments, the cell culture medium was replaced with medium containing 1 μg/mL Doxycycline for at least 16 hours to induce the expression of TRPV1.
as §2, §1

The test system of the next experiment is ICR mice. The experiment is described as follows: acetic acid writhing pain model in mice. The following applies: 10 mg/kg intragastric, acetic acid 1 h after administration. It counts as in vivo. The method, then: Male ICR mice, weighed 22-25 g, were fasted but allowed to drink water freely for 2 h before administration. All ICR mice were weighed and grouped randomly, and the number of animals in each group was greater than 10. […] […] The drug was administrated intragastrically based on the weight of mice. 1.5% acetic acid solution (0.1 ml/10 g) was injected intraperitoneally 1 hour after administration, and the frequency of visceral pain in each group of mice within 30 min was observed. When concave abdomen, stretched trunk and hind paw, and high buttocks appeared, one number point was recorded. Finally, the number of appearance of the above phenomenon was counted within 30 minutes.
A general note: In writhing tests, fewer writhes than in controls are read as antinociception.

The IC50 is the concentration needed to halve the response being measured. By inhibition is commonly meant the drop in the measured response relative to a control, in per cent. Read a low inhibition as a response near the control.

T1 sequence (Q7Z2W7 whole entry, species assumed): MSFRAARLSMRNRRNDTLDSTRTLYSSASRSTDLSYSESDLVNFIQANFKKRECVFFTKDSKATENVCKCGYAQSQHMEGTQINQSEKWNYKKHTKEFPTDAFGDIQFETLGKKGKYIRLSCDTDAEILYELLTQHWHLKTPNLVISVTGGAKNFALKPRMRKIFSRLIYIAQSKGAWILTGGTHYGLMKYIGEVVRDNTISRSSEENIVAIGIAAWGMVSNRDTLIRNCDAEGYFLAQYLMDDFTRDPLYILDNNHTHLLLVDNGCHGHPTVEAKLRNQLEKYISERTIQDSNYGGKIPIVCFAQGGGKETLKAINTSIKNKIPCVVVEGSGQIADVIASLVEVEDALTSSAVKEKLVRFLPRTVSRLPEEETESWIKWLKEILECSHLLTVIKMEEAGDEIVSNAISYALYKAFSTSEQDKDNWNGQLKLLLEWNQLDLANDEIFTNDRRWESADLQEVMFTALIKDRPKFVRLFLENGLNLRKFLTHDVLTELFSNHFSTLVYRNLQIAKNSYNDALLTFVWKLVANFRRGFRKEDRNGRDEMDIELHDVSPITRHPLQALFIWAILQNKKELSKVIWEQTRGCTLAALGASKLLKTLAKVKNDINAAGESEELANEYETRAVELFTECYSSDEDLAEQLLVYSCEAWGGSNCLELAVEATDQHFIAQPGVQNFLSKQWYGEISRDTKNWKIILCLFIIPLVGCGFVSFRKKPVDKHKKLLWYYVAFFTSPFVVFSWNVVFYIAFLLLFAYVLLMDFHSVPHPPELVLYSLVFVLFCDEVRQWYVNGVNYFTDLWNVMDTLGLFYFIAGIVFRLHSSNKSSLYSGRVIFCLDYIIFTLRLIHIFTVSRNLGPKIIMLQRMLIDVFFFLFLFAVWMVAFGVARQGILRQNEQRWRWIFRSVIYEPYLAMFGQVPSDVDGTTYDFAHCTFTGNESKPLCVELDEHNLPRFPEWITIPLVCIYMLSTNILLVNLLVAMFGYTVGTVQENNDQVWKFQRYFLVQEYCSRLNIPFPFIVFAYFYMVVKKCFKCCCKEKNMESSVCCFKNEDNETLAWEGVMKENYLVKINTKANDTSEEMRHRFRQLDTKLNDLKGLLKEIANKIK

Regarding `NCC[C@H](Oc1cccc2ccoc12)c1cccs1` [IC-23, (S)-3-(benzofuran-7-yloxy)-3-(thiophen-2-yl)propan-1-amine], the “analgesic activity compared with the positive controls gabapentin and duloxetine” value in the experiment with C57 mice is “significantly stronger than that of 100 mg/kg of gabapentin”. In addition, in the experiment on C57 mice (within 60 min), the “analgesic effect (MPE %) compared with the saline control group” value is reported as “very potent analgesic effect”. Turning to `Cc1cccc(COc2ccccc2C(=O)N(CCCN)Cc2cccs2)c1` [AMTB, reference compound], the “Inhibition % of TRPM8 current” value at TRPM8 is “over 90%”. Turning to `NCC1(CC(=O)O)CCCCC1` [Gabapentin, reference compound], the “PWT” value in the experiment on SD rats is listed as 6.352 ± 1.897 g.

`N.N.N.N.N.N.N.N.N.N.N.N.N.N.[Cl-].[Cl-].[Cl-].[Cl-].[Cl-].[Cl-].[O-2].[O-2].[Ru+3].[Ru+3].[Ru+4]` [RR, Ruthenium Red, reference compound]: the “Inhibition % of TRPV4 current” value on TRPV4 is recorded as “over 90%”. Turning to `CNCC[C@H](Oc1cccc2c1CCC2)c1ccccc1` [Compound C1], the concentration for half-maximal inhibition (IC50) at TRPA1 lay in the range of 20 to 50 µM. Regarding `Oc1cc2c(cc1O)CN(C(=S)NCCc1ccc(Cl)cc1)CCC2` [Capsazepine, reference compound], the inhibition at 10 µM on TRPV1 was > 90%. As to `CN1[C@H]2C[C@H](OC(=O)[C@H](CO)c3ccccc3)C[C@@H]1[C@@H](O)C2` [anisodamine, reference compound], the “frequency of writhing response within 30 min” value in the experiment with ICR mice is listed as 27 times.

Source of the values: patent US12492195B2, “Preparation method for and crystal form of 3-aryloxy-3-five-membered heteroaryl-propylamine compound” (Zhangzhou Pien Tze Huang Pharmaceutical Co., Ltd., priority 2020, dated 2025).
